Literature values, collected in patent US20030035834A1, “Sustained release verapamil pharmaceutical composition free of food effect and a method for alleviating food effect in drug release” (priority 2000, published 2003).
Like-named read-outs stand apart in the source and are kept apart here.

## COc1ccc2c3c1O[C@H]1C(=O)CC[C@@]4(O)[C@@H](C2)N(C)CC[C@]314 [oxycodone]
Extended release tablets
  difference in availability, fasted vs fed: no difference
Immediate release aqueous solution
  difference in availability, fasted vs fed: significant difference
